Earlier results in patent US10052341B2, “Method for preparing an anthelmintic composition, anthelmintic composition, veterinary treatment method and anthelmintic treatment method” (OURO FINO SAUDE ANIMAL PARTICIPACOES SA, priority 2013, dated 2018).

Settings: pH 5

Compound | Water-solubility [µg/mL]
CCC[S+]([O-])c1ccc2[nH]c(NC(=O)OC)nc2c1 (centres unmarked) [albendazole sulfoxide] | 67
CCCSc1ccc2nc(NC(=O)OC)[nH]c2c1 [albendazole] | 0.53
